Source: patent publication US12486303B2, “Use of peptide for inhibiting functions and expressions of multiple disease biomarkers” (NIBEC CO., LTD., priority 2018, dated 2025)
Peptide text beside a SMILES is read from it.

Tests used:
[1] = tested on: collagen-induced arthritis (CIA) rats; assay: Collagen-induced arthritis animal model; type: in vivo, Wistar rats
Source text: In order to determine whether or not the peptide according to the present invention is effective in treating rheumatoid arthritis in vivo, the effect of treating arthritis thereof was detected in a collagen-induced arthritis animal model. For this purpose, female Wistar rats (105-135 g, n=67) were purchased from Harlan Co. Ltd. (Indianapolis, IN, USA). All rats were bred in a pathogen-free environment and sterilized standard rat feed (Harlan Co. Ltd, USA) and water were freely fed to the rats. Animal experiments were conducted with the approval of the Institutional Animal Care and Use Committee (IACUC) of Seoul National University. Collagen-induced arthritis was induced in a known manner (Nishikawa et al., Arthritis and rheumatism. 2003; 48:2670-81).
Specifically, 500 μg of bovine collagen type II was injected along with a mixture of 0.5 mL of 0.1 M acetic acid and 0.5 mL of Freund's incomplete adjuvant into rat muscle. On the 7th day, 0.5 mL of 0.1 M acetic acid and 0.5 mL of Freund's incomplete adjuvant were further inoculated along with 250 μg of bovine collagen type II to produce collagen-induced arthritis (CIA) rats. The rats were classified into a CIA-induced group (n=10), a CIA-induced group injected with a low concentration of the peptide of SEQ ID NO: 1 (LD AIP, 15 mg/kg, n=10), a CIA-induced group injected with a high concentration of the peptide of SEQ ID NO: 1 (HD AIP, 30 mg/kg, n=10), a CIA-induced group injected with etanercept (Enbrel) (10 mg/kg, n=10), and a normal group (n=6). From 28 days after the first collagen injection, the peptide of SEQ ID NO: 1 was injected subcutaneously into the back of the neck twice a week over 4 weeks. Etanercept was injected intraperitoneally three times a week over 4 weeks. Swelling of both hind paws was measured twice using a plethysmometer (LE7500 N, IWOO Scientific Corporation, KOREA) on day 22, 29, 31, 35, 38, 42, 45, 49, 52, and 56. The plethysmometer was used after calibration to a weight of 3 mL. The measured area was marked by drawing a line, and measurement was conducted adjacent to the ankle. Hind paw swelling increase (%) and hind paw swelling inhibition (%) were calculated using the following equations.
In order to observe the degree of bone damage in the hind paw, microcomputed tomography (micro-CT) was performed using a SkyScan 1172 (SkyScan, Aartselaar, Belgium). The total volume (TV; mm^3), bone volume (BV; mm^3) and bone volume fraction (BV/TV; %) were analyzed using CTAn software. On the 57th day, rats were sacrificed and subjected to histological analysis. Both hind paws and joints were collected, fixed in 10% buffered formalin, and demineralized in 30% citrate-buffered formic acid at 4° ° C. for 3 days. Paraffin blocks were produced, sliced into sections with a thickness of 4 μm and stained with hematoxylin and eosin (H&E), and then the pathological score was evaluated with an optical microscope. The joint inflammation index was measured based on the following criteria (Shiozawa et al., J Clin Invest. 1997; 99 (6):1210-1216). 0, normal synovium; 1, synovial membrane hypertrophy and cell infiltrates; 2, pannus and cartilage erosion; 3, major erosion of cartilage and subchondral bone; and 4, loss of joint integrity and ankylosis.
The rats were sacrificed and systemic blood was collected, and the concentrations of TNF-α and IL-6 in the blood were measured with an ELISA kit (R&D, Minneapolis, MN, USA).

HDAC5 protein = target: T1, HDAC5 protein (Homo sapiens, UniProt Q9UQL6); assay: Biacore T200 binding affinity to immobilised HDAC5 protein; settings: CM5 chip, 1:1 binding model; for kon: read-out: ka
T1 construct: purchased Abcam
T1 sequence (Q9UQL6 whole entry, species assumed): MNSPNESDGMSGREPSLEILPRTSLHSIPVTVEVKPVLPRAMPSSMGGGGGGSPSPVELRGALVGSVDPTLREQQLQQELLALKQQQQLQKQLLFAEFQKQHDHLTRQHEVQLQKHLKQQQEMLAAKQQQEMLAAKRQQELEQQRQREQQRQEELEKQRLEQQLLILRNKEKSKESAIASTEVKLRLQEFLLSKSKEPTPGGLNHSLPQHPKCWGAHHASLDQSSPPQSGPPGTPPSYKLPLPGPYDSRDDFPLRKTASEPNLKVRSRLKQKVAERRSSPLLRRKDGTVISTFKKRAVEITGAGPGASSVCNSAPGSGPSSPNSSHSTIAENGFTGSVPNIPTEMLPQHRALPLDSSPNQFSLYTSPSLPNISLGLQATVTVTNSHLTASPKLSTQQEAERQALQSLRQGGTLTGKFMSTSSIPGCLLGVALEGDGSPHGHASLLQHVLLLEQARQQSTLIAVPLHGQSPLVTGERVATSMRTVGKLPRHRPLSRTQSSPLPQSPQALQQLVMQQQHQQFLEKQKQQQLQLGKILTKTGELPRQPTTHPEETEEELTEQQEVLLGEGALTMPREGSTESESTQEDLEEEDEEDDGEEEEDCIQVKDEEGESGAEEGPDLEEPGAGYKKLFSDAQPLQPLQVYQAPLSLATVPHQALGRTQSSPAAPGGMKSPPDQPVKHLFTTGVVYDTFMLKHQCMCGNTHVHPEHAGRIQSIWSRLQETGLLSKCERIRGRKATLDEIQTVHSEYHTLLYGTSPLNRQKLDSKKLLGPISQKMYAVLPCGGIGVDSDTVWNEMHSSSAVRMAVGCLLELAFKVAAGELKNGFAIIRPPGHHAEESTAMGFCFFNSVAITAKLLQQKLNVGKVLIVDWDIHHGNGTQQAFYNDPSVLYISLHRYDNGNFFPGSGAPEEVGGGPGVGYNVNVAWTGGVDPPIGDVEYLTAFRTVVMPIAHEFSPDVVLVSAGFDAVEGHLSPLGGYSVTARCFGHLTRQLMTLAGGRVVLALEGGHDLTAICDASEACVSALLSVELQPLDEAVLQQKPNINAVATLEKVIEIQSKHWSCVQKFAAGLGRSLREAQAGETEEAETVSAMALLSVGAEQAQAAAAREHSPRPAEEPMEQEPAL
Experimental: For this purpose, HDAC5 protein (Abcam, MA, USA) was dissolved in sodium acetate buffer (pH 4.5), and was bound to a dextran-covered sensor chip surface (CM5 chip) using N-hydroxysuccinimide (NHS) and N-ethyl-N0-(3-dimethylaminopropyl)-carbodiimide hydrochloride (EDAC) as crosslinkers. The unreacted active group of dextran was blocked by the addition of ethanolamine (1M) thereto. The number of HDAC5 binding to the chip was measured as 4440RU (1000 RU=1 ng/mm^2). […] Rate constants for association (ka) and dissociation (kd), and a dissociation constant (KD) were calculated using BIAevaluation software and a 1:1 binding model.

| Compound | Kd (HDAC5 protein) [nM] | kd (HDAC5 protein) [s⁻¹] | kon (HDAC5 protein) [M⁻¹ s⁻¹] | also measured |
| --- | --- | --- | --- | --- |
| etanercept [reference compound] |  |  |  | Concentration of IL-6 in blood ([1]; ELISA, high concentration of peptide or etanercept, CIA-induced group 109 pg/ml): 24 pg/mL; Concentration of TNF-α in blood ([1]; ELISA, high concentration of peptide or etanercept, CIA-induced group 128 pg/ml): 39 pg/mL; Microscopic observation of joint tissues (inflammation, H&E) ([1]; FIG. 4A): results similar to the CIA-induced group injected with a low concentration of SEQ ID NO: 1; Hind paw swelling inhibition (%) ([1]; etanercept 10 mg/kg intraperitoneally): 37%; Hind paw swelling (%) ([1]; peptide 15 or 30 mg/kg subcutaneously twice a week, etanercept 10 mg/kg intraperitoneally three times a week, 4 weeks): decreased hind paw swelling (%) within 35 to 56 days (P<0.05); Inflammation index ([1]; score 0-4, CIA-induced group 3.3±0.67): 2.3±1.16 |
| CSCC[C@H](NC(=O)[C@H](CCCCN)NC(=O)CN)C(=O)N[C@@H](CO)C(=O)N[C@H](C(=O)N[C@@H](CCCNC(=N)N)C(=O)NCC(=O)N[C@@H](CCCNC(=N)N)C(=O)N[C@@H](CCCCN)C(=O)N[C@@H](CCSC)C(=O)N[C@@H](CS)C(=O)N[C@@H](CCCNC(=N)N)C(=O)N[C@@H](CCCNC(=N)N)C(=O)N[C@@H](CCCCN)C(=O)N[C@@H](CCCCN)C(=O)O)[C@@H](C)O [SEQ ID NO: 6] (H-GKMSTRGRKMCRRKK-OH; N-terminus and C-terminus assumed) | 444 | 0.04463 | 100000 |  |
| CSCC[C@H](NC(=O)[C@H](CCCCN)NC(=O)[C@H](CCCNC(=N)N)NC(=O)CNC(=O)[C@H](CCCNC(=N)N)NC(=O)[C@@H](NC(=O)[C@H](CO)NC(=O)[C@H](CS)NC(=O)[C@H](CCCCN)NC(=O)CN)[C@@H](C)O)C(=O)N[C@@H](CS)C(=O)N[C@@H](CCCNC(=N)N)C(=O)N[C@@H](CCCNC(=N)N)C(=O)N[C@@H](CCCCN)C(=O)N[C@@H](CCCCN)C(=O)O [SEQ ID NO: 3] (H-GKCSTRGRKMCRRKK-OH; N-terminus and C-terminus assumed) |  | 0.05953 | 82100 |  |
| CSCC[C@H](NC(=O)[C@H](CCCCN)NC(=O)[C@H](CCCNC(=N)N)NC(=O)CNC(=O)[C@H](CCCNC(=N)N)NC(=O)[C@@H](NC(=O)[C@H](CO)NC(=O)[C@H](CS)NC(=O)[C@H](CCCCN)NC(=O)CN)[C@@H](C)O)C(=O)N[C@@H](CCSC)C(=O)N[C@@H](CCCNC(=N)N)C(=O)N[C@@H](CCCNC(=N)N)C(=O)N[C@@H](CCCCN)C(=O)N[C@@H](CCCCN)C(=O)O [SEQ ID NO: 4] (H-GKCSTRGRKMMRRKK-OH; N-terminus and C-terminus assumed) | 940 | 0.06788 | 72200 |  |
| CSCC[C@H](NC(=O)[C@H](CCCCN)NC(=O)CN)C(=O)N[C@@H](CO)C(=O)N[C@H](C(=O)N[C@@H](CCCNC(=N)N)C(=O)NCC(=O)N[C@@H](CCCNC(=N)N)C(=O)N[C@@H](CCCCN)C(=O)N[C@@H](CCSC)C(=O)N[C@@H](CCSC)C(=O)N[C@@H](CCCNC(=N)N)C(=O)N[C@@H](CCCNC(=N)N)C(=O)N[C@@H](CCCCN)C(=O)N[C@@H](CCCCN)C(=O)O)[C@@H](C)O [SEQ ID NO: 8] (H-GKMSTRGRKMMRRKK-OH; N-terminus and C-terminus assumed) | 86.8 | 0.004776 | 55000 |  |
| CSCC[C@H](NC(=O)[C@H](CCCCN)NC(=O)CN)C(=O)N[C@@H](CO)C(=O)N[C@H](C(=O)N[C@@H](CCCNC(=N)N)C(=O)NCC(=O)N[C@@H](CCCNC(=N)N)C(=O)N[C@@H](CCCCN)C(=O)N[C@@H](CS)C(=O)N[C@@H](CCSC)C(=O)N[C@@H](CCCNC(=N)N)C(=O)N[C@@H](CCCNC(=N)N)C(=O)N[C@@H](CCCCN)C(=O)N[C@@H](CCCCN)C(=O)O)[C@@H](C)O [SEQ ID NO: 7] (H-GKMSTRGRKCMRRKK-OH; N-terminus and C-terminus assumed) | 704 | 0.04757 | 67500 |  |
| CSCC[C@H](NC(=O)[C@H](CCCCN)NC(=O)CN)C(=O)N[C@@H](CO)C(=O)N[C@H](C(=O)N[C@@H](CCCNC(=N)N)C(=O)NCC(=O)N[C@@H](CCCNC(=N)N)C(=O)N[C@@H](CCCCN)C(=O)N[C@@H](CS)C(=O)N[C@@H](CS)C(=O)N[C@@H](CCCNC(=N)N)C(=O)N[C@@H](CCCNC(=N)N)C(=O)N[C@@H](CCCCN)C(=O)N[C@@H](CCCCN)C(=O)O)[C@@H](C)O [SEQ ID NO: 5] (H-GKMSTRGRKCCRRKK-OH; N-terminus and C-terminus assumed) |  | 0.03088 | 65900 |  |
| CSCC[C@H](NC(=O)[C@H](CS)NC(=O)[C@H](CCCCN)NC(=O)[C@H](CCCNC(=N)N)NC(=O)CNC(=O)[C@H](CCCNC(=N)N)NC(=O)[C@@H](NC(=O)[C@H](CO)NC(=O)[C@H](CS)NC(=O)[C@H](CCCCN)NC(=O)CN)[C@@H](C)O)C(=O)N[C@@H](CCCNC(=N)N)C(=O)N[C@@H](CCCNC(=N)N)C(=O)N[C@@H](CCCCN)C(=O)N[C@@H](CCCCN)C(=O)O [SEQ ID NO: 2] (H-GKCSTRGRKCMRRKK-OH; N-terminus and C-terminus assumed) |  | 0.06872 | 74400 |  |
